# According to PubChem BioAssay (NCI):
# Where “and” joins values, the source holds several entries; their conditions need not be identical. Equal values may be shown once.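 Exposure lasted 48 hours, with cells grown in 96-well plates and compounds tested at five concentrations. GI50 marks 50% less growth. TGI: concentration producing complete growth inhibition.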
# How the values were obtained:
# Assay in all cases: NCI tumour cell line growth inhibition, 48 h
# CAKI-1 renal = test system: CAKI-1 renal
# EKVX NSCLC = test system: EKVX NSCLC
# A549 NSCLC = test system: A549 NSCLC
# OVCAR-5 ovarian = test system: OVCAR-5 ovarian
# K-562 leukemia = test system: K-562 leukemia
# SF-268 CNS = test system: SF-268 CNS
# SK-MEL-2 melanoma = test system: SK-MEL-2 melanoma
# HOP-92 NSCLC = test system: HOP-92 NSCLC
# UO-31 renal = test system: UO-31 renal
# A498 renal = test system: A498 renal
Compound,GI50 (CAKI-1 renal),TGI (CAKI-1 renal),GI50 (EKVX NSCLC),TGI (EKVX NSCLC),GI50 (A549 NSCLC),TGI (A549 NSCLC),GI50 (OVCAR-5 ovarian),TGI (OVCAR-5 ovarian),GI50 (K-562 leukemia),TGI (K-562 leukemia),GI50 (SF-268 CNS),TGI (SF-268 CNS),GI50 (SK-MEL-2 melanoma),TGI (SK-MEL-2 melanoma),GI50 (HOP-92 NSCLC),TGI (HOP-92 NSCLC),GI50 (UO-31 renal),TGI (UO-31 renal),TGI (A498 renal),GI50 (A498 renal)
COc1cc2c3c(n(C)c(=O)c2cc1OC)-c1cc2c(cc1/C3=C\CCNCCCN)OCO2,3.44 µM,14.3 µM,3.83 µM,18 µM,4.53 µM,> 100 µM,3.04 µM,13.4 µM,2.08 µM,12.1 µM,2.43 µM,11.8 µM,5.09 µM,> 100 µM,1.45 µM,11.1 µM,42.5 µM,> 100 µM,,
O=[N+]([O-])c1ccc(C=NC23CC4CC(CC(C4)C2)C3)cc1,,> 100 µM,,> 100 µM,,,,> 100 µM,,> 100 µM,,> 100 µM,,> 100 µM,,> 100 µM,,> 100 µM,> 100 µM,
Nc1c(C(=O)Nc2cccc(Cl)c2Cl)sc2nc3c(cc12)C(=O)CCC3,> 100 µM,> 100 µM,,,0.866 µM,> 100 µM,> 100 µM,> 100 µM,0.958 µM,> 100 µM,> 100 µM,> 100 µM,,> 100 µM,> 100 µM,> 100 µM,> 100 µM,> 100 µM,9.33 µM,0.399 µM
COc1ccc2ccc3oc([N+](=O)[O-])cc3c2c1,0.186 µM,0.514 µM,,,0.197 µM,0.543 µM,0.386 µM,7.68 µM,0.259 µM,> 100 µM,0.201 µM,1.69 µM,0.242 µM,0.509 µM,0.155 µM,0.506 µM,,,0.301 µM,0.126 µM
O=C(O)c1cc2ccccc2c2c1C(=O)c1ccccc1-2,,> 100 µM,,,,> 100 µM,,> 100 µM,,> 100 µM,,> 100 µM,,> 100 µM,,> 100 µM,,> 100 µM,,
CNCCN=c1ccc2c3c1c(O)c1c(O)ccc(=O)c1c3[nH]n2CCNCCO,0.054 µM,0.992 µM and 2.28 µM,1.84 µM and 0.889 µM,10.5 µM and 3.5 µM,0.027 µM,4.65 µM and 4.57 µM,0.9 µM,3.36 µM and 11.5 µM,0.224 µM and 0.296 µM,3.66 µM and 10.9 µM,,2.57 µM,,,0.199 µM,2.64 µM and 1.37 µM,0.918 µM and 3.47 µM,13 µM and 62.2 µM,1.14 µM and 5.15 µM,0.102 µM and 0.405 µM
N#CCC(=O)N1CCCCCCC1,,> 100 µM,,> 100 µM,,> 100 µM,,> 100 µM,,> 100 µM,,> 100 µM,,> 100 µM,,,,> 100 µM,> 100 µM,
C[C@]12CCC(=O)C=C1CC[C@@H]1C2CC[C@]2(C)c3nn(-c4ccccc4)nc3CC12 (stereo partly specified),,,,> 100 µM,,> 100 µM,,> 100 µM,,> 100 µM,,> 100 µM,,> 100 µM,,> 100 µM,,> 100 µM,> 100 µM,
COC(=O)C(C)NC(=O)c1ccccc1I(OS(=O)(=O)C(F)(F)F)c1ccccc1 (stereo unspecified),> 42.8 µM,> 62.5 µM,25.6 µM,88.9 µM,30.6 µM,> 75.2 µM,16.9 µM,36.7 µM,> 42.4 µM,> 63.7 µM,17.6 µM,53.2 µM,41.6 µM,> 100 µM,3.66 µM,21.6 µM,21.3 µM,42.1 µM,,
